Experimental findings from PubChem BioAssay (NCI) are described below.

Some test systems named below: CCRF-CEM leukemia; A549 NSCLC; HOP-92 NSCLC; LOX IMVI melanoma; DU-145 prostate; UO-31 renal; MALME-3M melanoma; IGROV1 ovarian; CAKI-1 renal; UACC-62 melanoma.
What all share (experiment): DTP human tumour cell line panel, 48 h

Values joined by “and” are separate entries in the source; they are usually repeats but may differ in a detail not shown here. Equal entries are not always repeated.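 Tested at 5 concentrations; 48 h exposure; 96-well plates; endpoints linearly interpolated, else capped at highest concentration. The concentration for 50% growth inhibition is given as GI50. TGI denotes the concentration required for complete inhibition of growth.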

With `COC(=O)C(C)NC(=O)c1ccccc1I(OS(=O)(=O)C(F)(F)F)c1ccccc1` (centres undefined), the GI50 in the experiment on CCRF-CEM leukemia is 20.3 µM; with A549 NSCLC, 30.6 µM; with HOP-92 NSCLC it was 3.66 µM; in the experiment with LOX IMVI melanoma, 22.5 µM; in the experiment with DU-145 prostate it was 25.6 µM; in the experiment with UO-31 renal it was 21.3 µM. Also, the GI50 with MALME-3M melanoma is 14 µM; in the experiment with IGROV1 ovarian, 36.4 µM; with CAKI-1 renal it was > 42.8 µM; in the experiment on UACC-62 melanoma, 17.3 µM. Also, the TGI in the experiment with CCRF-CEM leukemia is 60.4 µM; in the experiment on A549 NSCLC, > 75.2 µM; with HOP-92 NSCLC, 21.6 µM; in the experiment on LOX IMVI melanoma it was > 60.6 µM; in the experiment with DU-145 prostate it was > 71.1 µM; in the experiment with UO-31 renal, 42.1 µM. Moreover, the TGI in the experiment with MALME-3M melanoma is 29.5 µM; with IGROV1 ovarian, > 100 µM; in the experiment on CAKI-1 renal it was > 62.5 µM; in the experiment with UACC-62 melanoma it was 35 µM.
Regarding `CC#Cc1nc(Nc2cc(C)[nH]n2)c2ccccc2n1`, the GI50 is 4.6 µM in the experiment with CCRF-CEM leukemia; 5.16 µM in the experiment on A549 NSCLC; 3.55 µM with HOP-92 NSCLC; 2.07 µM in the experiment with LOX IMVI melanoma; 7.47 µM with DU-145 prostate; 7.6 µM and 2.42 µM with UO-31 renal. Besides, the GI50 in the experiment on MALME-3M melanoma was 7.24 µM; in the experiment on IGROV1 ovarian, 2.58 µM; with CAKI-1 renal, 2.32 µM; in the experiment with UACC-62 melanoma, 2.67 µM. Besides, the concentration for total growth inhibition (TGI) in the experiment with CCRF-CEM leukemia is > 100 µM; in the experiment with A549 NSCLC it was 26.8 µM; in the experiment on HOP-92 NSCLC it was 21.1 µM; in the experiment with LOX IMVI melanoma, 4.4 µM; with DU-145 prostate, 55 µM; with UO-31 renal it was 14.5 µM. The total growth inhibition concentration (TGI) with MALME-3M melanoma is 25.2 µM; with IGROV1 ovarian, 15.4 µM; in the experiment on CAKI-1 renal it was 13.8 µM; in the experiment with UACC-62 melanoma, 11.8 µM.
`COc1ccc(Cn2cc3c(c2-c2cc(OC)c(OC)c(OC)c2)CCc2cnoc2-3)cc1`: the 50% growth inhibitory concentration (GI50) in the experiment with CCRF-CEM leukemia was 0.291 µM; in the experiment on A549 NSCLC it was 0.372 µM; with HOP-92 NSCLC, > 21.4 µM; in the experiment with LOX IMVI melanoma it was 0.813 µM; with DU-145 prostate, 0.309 µM; in the experiment on UO-31 renal, 0.542 µM. For the same molecule, the 50% growth inhibitory concentration (GI50) with MALME-3M melanoma is 0.239 µM; with IGROV1 ovarian, 0.394 µM; with CAKI-1 renal, 0.334 µM; in the experiment on UACC-62 melanoma it was 0.342 µM. Besides, the TGI in the experiment with CCRF-CEM leukemia is > 24.3 µM; with A549 NSCLC, > 100 µM; with HOP-92 NSCLC it was > 100 µM; with LOX IMVI melanoma, > 100 µM; with DU-145 prostate, > 100 µM; in the experiment on UO-31 renal, > 100 µM. Besides, the TGI with MALME-3M melanoma is > 100 µM; with IGROV1 ovarian, > 100 µM; with CAKI-1 renal, > 100 µM; in the experiment on UACC-62 melanoma it was > 23 µM.
With `C=C1C(=O)O[C@H]2[C@H]1CC/C(COC(=O)NCc1ccc(Cn3c(=O)sn(-c4ccccc4)c3=O)cc1)=C\CC[C@@]1(C)O[C@@H]21`, the GI50 with CCRF-CEM leukemia was 0.833 µM; in the experiment with A549 NSCLC, 6.22 µM; with HOP-92 NSCLC, 1.82 µM; in the experiment with LOX IMVI melanoma it was 1.62 µM; with DU-145 prostate it was 1.71 µM; in the experiment on UO-31 renal, 1.68 µM. Moreover, the GI50 in the experiment on MALME-3M melanoma is 2.09 µM; in the experiment on IGROV1 ovarian, 2.09 µM; with CAKI-1 renal, 2.49 µM; with UACC-62 melanoma, 2.04 µM. Also, the TGI with CCRF-CEM leukemia is > 100 µM; in the experiment on A549 NSCLC, 20.6 µM; with HOP-92 NSCLC it was 3.44 µM; in the experiment on LOX IMVI melanoma, 3.07 µM; with DU-145 prostate it was 3.12 µM; in the experiment with UO-31 renal, 3.16 µM. Also, the concentration for total growth inhibition (TGI) in the experiment on MALME-3M melanoma is 4.06 µM; in the experiment on IGROV1 ovarian it was 4.2 µM; in the experiment with CAKI-1 renal, 6.1 µM; with UACC-62 melanoma it was 4.15 µM.
With `C=CC1=C(C)C2=NC1=CC1=NC(=C(CC)/C1=C\O)C=C1N=C3C(=C1C)C(=O)[C@H](C(=O)OC)C3=C1NC(=C2)[C@@H](C)[C@@H]1CCC(=O)O`, the concentration for total growth inhibition (TGI) in the experiment on CCRF-CEM leukemia, with A549 NSCLC, in the experiment on HOP-92 NSCLC, in the experiment on LOX IMVI melanoma, with DU-145 prostate and in the experiment on UO-31 renal was > 100 µM throughout. Moreover, the total growth inhibition concentration (TGI) in the experiment with MALME-3M melanoma, with IGROV1 ovarian, with CAKI-1 renal and in the experiment on UACC-62 melanoma was > 100 µM throughout.
As for `CCCCCCCCCCCCCCCC1=NC(C)(C)CN1C(C)C`, the GI50 in the experiment with CCRF-CEM leukemia was 1.41 µM; in the experiment with A549 NSCLC it was 1.81 µM; in the experiment on HOP-92 NSCLC, 1.1 µM; in the experiment on LOX IMVI melanoma, 1.45 µM; in the experiment on DU-145 prostate, 1.56 µM; in the experiment with UO-31 renal, 1.44 µM. Besides, the GI50 is 1.64 µM in the experiment on MALME-3M melanoma, 1.12 µM in the experiment with IGROV1 ovarian, 1.13 µM in the experiment with CAKI-1 renal and 1.67 µM in the experiment with UACC-62 melanoma. In addition, the TGI in the experiment on CCRF-CEM leukemia stood at 3.47 µM; in the experiment with A549 NSCLC, 3.43 µM; with HOP-92 NSCLC it was 3.45 µM; with LOX IMVI melanoma, 2.8 µM; with DU-145 prostate it was 2.9 µM; in the experiment on UO-31 renal, 2.84 µM. In addition, the total growth inhibition concentration (TGI) in the experiment with MALME-3M melanoma came out at 3.35 µM; in the experiment with IGROV1 ovarian, 2.41 µM; with CAKI-1 renal, 2.53 µM; in the experiment with UACC-62 melanoma, 3.14 µM.
`Oc1c(CN2CCN(c3ccccc3)CC2)cc(Br)c2cccnc12`: the concentration for total growth inhibition (TGI) with CCRF-CEM leukemia was > 100 µM; in the experiment with A549 NSCLC, > 100 µM; in the experiment on HOP-92 NSCLC, 30.8 µM; with LOX IMVI melanoma, 17 µM; in the experiment with DU-145 prostate it was 13.8 µM; in the experiment with UO-31 renal, > 30.5 µM. Also, the figures for the concentration for total growth inhibition (TGI) in the experiment with MALME-3M melanoma, with IGROV1 ovarian and in the experiment with CAKI-1 renal were 42.2 µM, > 100 µM and > 100 µM, respectively.
`C/C(=N\NC(=S)N(C)C)c1ccccn1`: the 50% growth inhibitory concentration (GI50) in the experiment with CCRF-CEM leukemia was 0.000277 µM; with LOX IMVI melanoma, 0.00215 µM; in the experiment on UO-31 renal it was 0.166 µM; in the experiment on MALME-3M melanoma, 0.00639 µM; in the experiment with IGROV1 ovarian, 0.00402 µM; in the experiment with CAKI-1 renal, 0.0567 µM. For the same molecule, the TGI was 0.232 µM in the experiment with CCRF-CEM leukemia; 14.3 µM with A549 NSCLC; 17.8 µM in the experiment on HOP-92 NSCLC; 0.141 µM and 0.0176 µM in the experiment on LOX IMVI melanoma; 0.993 µM and 3.17 µM with DU-145 prostate; 3.91 µM in the experiment with UO-31 renal. The results for the TGI with IGROV1 ovarian, in the experiment on CAKI-1 renal and in the experiment on UACC-62 melanoma were 4.66 µM, 12.5 µM and 2.38 µM, respectively.
